Source: patent US20220089636A1, “TETRAZOLONE SUBSTITUTED STEROIDS AND USE THEREOF” (Beijing Xuanyi PharmaSciences Co., Ltd., priority 2019, published 2022)
Read-outs that look alike come from different tables or passages of the source.

Tests used:
[1] = system: PTZ-treated mice; test: Acute PTZ (pentylenetetrazol-induced seizure) assay; format: in vivo, Male CD-1 mice; conditions: 3 mg/kg oral gavage 60 min prior to PTZ 120 mg/kg s.c.; observed 30 min
Experimental: The anticonvulsant effect of test compounds were assessed in the pentylenetetazol-induced seizure assay in mice similar to methods described in Giardina & Gasior (2009) Curr Protoc Pharmacol., Chapter 5. Male CD-1 mice were housed in groups of five under controlled conditions (temperature of 22±2° C. and 12:12 light-dark cycle, lights on at 8:00 am) and water and food were available ad libitum. The mice were housed for 1 week prior to behavioral testing, at which time they weighed 25-35 g. Pentylenetetrazol (PTZ, Sigma) was dissolved in sterile 0.9% saline at a concentration of 12 mg/mL concentration for subcutaneous administration. Test compounds were formulated and administered via oral gavage at 60 minutes prior to PTZ injection. AU solutions were made fresh and were given in a volume of 10 ml/kg body weight.
Mice were acclimated to the test room for at least 30 min before compound administration. Mice were randomized into at least four test groups (vehicle and at least three doses of the test compound) with 10 mice per group. […] Following the drug pretreatment time, the mice were injected s.c. with PTZ (120 mg/kg). Immediately following the PTZ injection, mice were individually placed into observation chambers (25×15×15 cm) and a three-channel timer was started. Each mouse was continuously observed for 30 min and the following behaviors were recorded by observers blinded to the treatments: 1) latency to clonic convulsions that persist for 3 sec and followed by an absence of righting reflex 2) latency to tonic convulsions, characterized by the rigid extension of all four limbs that exceeded a 90 degree angle with the body 3) latency to death 4) number of clonic and tonic convulsions. Data are presented as mean±S.E.M and one-way analysis of variance with Dunnetfs or Bonferroni's post-hoc test was used to detect significant differences in latency and number between the vehicle and dose group, p values<0.05 were regarded as statistically significant.

[2] = target: T1, α1β2γ2 GABAA receptor (Homo sapiens, UniProt P14867+P47870); test: Patch clamp electrophysiology assay of recombinant α1β2γ2 GABAA receptors (potentiation of 2 μM GABA-evoked Cl- current); format: cell-based; conditions: HEK293T cells stably transfected with α1β2γ2 GABAA; for EC50: whole cell, 2 μM GABA, -80 mV
T1 construct: expressed in transfected cells
T1 sequence (P14867 28-456): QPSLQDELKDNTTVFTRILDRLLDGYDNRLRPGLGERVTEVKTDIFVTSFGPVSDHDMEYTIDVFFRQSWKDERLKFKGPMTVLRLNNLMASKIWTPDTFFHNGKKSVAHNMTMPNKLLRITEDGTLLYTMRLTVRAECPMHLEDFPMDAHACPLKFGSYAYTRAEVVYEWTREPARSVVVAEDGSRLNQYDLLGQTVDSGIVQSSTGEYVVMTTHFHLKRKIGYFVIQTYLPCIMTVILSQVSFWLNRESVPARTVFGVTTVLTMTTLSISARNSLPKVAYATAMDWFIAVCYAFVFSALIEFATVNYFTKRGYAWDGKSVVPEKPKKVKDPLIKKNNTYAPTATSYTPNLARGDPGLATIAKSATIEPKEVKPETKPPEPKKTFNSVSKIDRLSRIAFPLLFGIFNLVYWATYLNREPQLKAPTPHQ
T1 sequence (P47870 25-512 limits assumed): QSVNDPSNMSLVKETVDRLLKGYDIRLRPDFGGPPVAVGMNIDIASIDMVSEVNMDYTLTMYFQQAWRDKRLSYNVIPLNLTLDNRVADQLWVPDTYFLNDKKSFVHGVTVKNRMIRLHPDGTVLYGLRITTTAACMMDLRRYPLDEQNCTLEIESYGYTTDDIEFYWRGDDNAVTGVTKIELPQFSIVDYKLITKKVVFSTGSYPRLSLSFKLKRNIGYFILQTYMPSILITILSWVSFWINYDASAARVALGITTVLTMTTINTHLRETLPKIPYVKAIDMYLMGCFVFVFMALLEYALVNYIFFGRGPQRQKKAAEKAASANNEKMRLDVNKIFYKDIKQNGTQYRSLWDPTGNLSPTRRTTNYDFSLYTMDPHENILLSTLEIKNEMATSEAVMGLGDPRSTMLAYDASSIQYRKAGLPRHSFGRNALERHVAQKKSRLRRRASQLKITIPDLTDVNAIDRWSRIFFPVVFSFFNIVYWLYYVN
T1 sequence (P18507 40-475 partner): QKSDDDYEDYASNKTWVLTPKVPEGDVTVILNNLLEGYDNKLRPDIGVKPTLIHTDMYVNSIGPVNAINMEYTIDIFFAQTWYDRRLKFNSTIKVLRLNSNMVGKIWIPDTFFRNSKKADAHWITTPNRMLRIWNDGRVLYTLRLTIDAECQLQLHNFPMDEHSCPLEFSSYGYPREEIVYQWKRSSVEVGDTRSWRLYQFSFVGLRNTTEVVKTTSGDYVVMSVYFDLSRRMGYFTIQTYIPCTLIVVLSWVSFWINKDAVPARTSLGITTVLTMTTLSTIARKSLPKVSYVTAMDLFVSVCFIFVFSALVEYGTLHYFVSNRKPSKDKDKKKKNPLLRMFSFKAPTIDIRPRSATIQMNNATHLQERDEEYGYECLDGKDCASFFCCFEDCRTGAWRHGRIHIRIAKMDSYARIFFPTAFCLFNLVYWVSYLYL
Experimental: Cellular electrophysiology is used to measure the pharmacological properties of GABAA receptor modulators in heterologous cell systems. Each compound is tested for its ability to affect GABA mediated currents at a submaximal agonist dose (GABA EC20=2 μM). HEK293T cells are stably transfected with the α1β2γ2 subunits of the GABAA receptor. Flasks or dishes of HEK293 GABAA cells were maintained in the medium (DMEM, 11% (v/v) heat inactivated FBS, 100 or 200 μg/ml G418, 40 μg/ml Hygromycin B, 80 μg/ml Zeocin) and incubated at 37° C. in a humidified incubator with 5% CO2. 12 to 24 hours prior to electrophysiological recordings, the cells were plated on glass cover slips placed in culture dishes and maintained under the same incubation and media conditions. The number of cells being plated on the cover slip should reach a confluence rate at which majority of the cells are single.
For the electrophysiological recordings in the study the following external and internal solutions were used (Table 1):
HEKA EPC 10 USB patch clamp amplifier (from HEKA Elektronik, Germany) was used in the whole cell recording. A cover slip with plenty of single HEK293T-GABAA cells on the surface was removed and placed into a continuously perfused (approximately 1-2 ml/minute) recording chamber mounted on an inverted microscope. GABAA Cl^− current was recorded from single cell using standard whole cell recording techniques. 2 μM GABA was used to evoke GABAA Cl^− current (2 μM of GABA was the EC10-EC20 value of agonist GABA obtained internally on the stable GABAA cells used in this study). After achieving break-in (whole-cell) configuration, the cell was voltage clamped at a holding potential of −80 mV. Only stable cells meeting the recording parameters (membrane resistance Rm>500 MΩ, access resistance (Ra)<15 MΩ, leak current<100 pA in 90% of the recording time) were used. 2 μM GABA was applied to the cell to induce stable Cl^− current first as control for about 2 seconds, test compounds (i.e., compounds of formula (AI), (I), (AII), and (II), or any subgenera thereof) were followed to be applied to the cells for 3 min, then 2 μM GABA was applied to observe the potentiation effect on the GABAA Cl^− current. Different doses of test compound from low to high were applied to the same cell when the cell was stable. A cell was considered stable when current size evoked by 2 μM GABA applied to the cell from time to time was similar. To minimize the possible desensitation of GABAA Cl^− current, duration between applications of test articles was set to 180 seconds.
Test compounds were dissolved in DMSO to form stock solutions (10 mM). Test compounds were diluted to 0.003, 0.01, 0.03, 0.1, 0.3, 1, 3 and 10 μM in bath solution. AU concentrations of test articles were tested on each cell. Data were analyzed using software provided by HEKA, Microsoft Excel and Graphpad Prism (Table 2).

[3] = Mouse PK study (i.v. and p.o.); format: in vivo; conditions: plasma, male CD1 mice; for half-life: read-out: T1/2 (hr) i.v. (converted); for Vd: read-out: Vss; for bioavailability: 5 mg/kg p.o. vs 1 mg/kg i.v.
Experimental: Test compounds were dosed to male CD1 mice at 5 mg/kg by oral gavage (p.o.) or 1 mg/kg by intravenous injection (i.v.). Blood samples were taken at 0.083, 0.25, 0.5, 1.0, 3.0, 6.0 and 24 hours post i.v. dosing and at 0.25, 0.5, 1.0, 3.0, 6.0 and 24 hours post p.o. dosing. The plasma concentration of compounds were determined by HPLC.

[4] = iv, 1 mg/kg i.v., read-out: AUClast (hr*ng/mL) i.v.
[5] = po, 5 mg/kg p.o., read-out: AUClast (hr*ng/mL) p.o.

| SMILES | Clonic Seizure Latency (sec) (Mean) [1] | Clonic Seizure Number (Mean) [1] | Mortality (%) [1] | Onset of death (sec) (Mean) [1] | Tonic Seizure Latency (sec) (Mean) [1] | Tonic Seizure Number (Mean) [1] | EC50 [2] | clearance ([3]; iv, 1 mg/kg i.v.) | AUC(0-t) [3, 4] | half-life ([3]; iv, 1 mg/kg i.v.) | Vd ([3]; iv, 1 mg/kg i.v.) | Cmax ([3]; po, 5 mg/kg p.o.) | Tmax ([3]; po, 5 mg/kg p.o.) | bioavailability ([3]; po) | AUC(0-t) [3, 5] | Emax ([2]; HEK-293T, potentiation of 2 μM GABA current) |
| --- | --- | --- | --- | --- | --- | --- | --- | --- | --- | --- | --- | --- | --- | --- | --- | --- |
| Cn1nnn(CC(=O)[C@H]2CC[C@H]3[C@@H]4CC[C@@H]5C[C@](C)(O)CC[C@@H]5[C@H]4CC[C@]23C)c1=O [Example 2, 1-(2-((3R,5R,8R,9R,10S,13S,14S,17S)-3-hydroxy-3,13-dimethylhexadecahydro-1H-cyclopenta[a]phenanthren-17-yl)-2-oxoethyl)-4-methyl-1,4-dihydro-5H-tetrazol-5-one] | 1085.4 ± 184.6 s | 0.7 ± 0.2 | 0.0% | 1800 + 0.0 sec | 1800 + 0.0 sec | 0.0 + 0.0 | 110 nM | 10.7 mL/min/kg | 1480 ng·h/mL | 1.46 h | 1.16 L/kg | 1380 ng/mL | 1 h | 66.3% | 4900 ng·h/mL | – |
| Cn1nccc1-n1nnn(CC(=O)[C@H]2CC[C@H]3[C@@H]4CC[C@@H]5C[C@](C)(O)CC[C@@H]5[C@H]4CC[C@]23C)c1=O [Example 26, 1-(2-((3R,5R,8R,9R,10S,13S,14S,17S)-3-hydroxy-3,13-dimethylhexadecahydro-1H-cyclopenta[a]phenanthren-17-yl)-2-oxoethyl)-4-(1-methyl-1H-pyrazol-5-yl)-1,4-dihydro-5H-tetrazol-5-one] | 1547.8 ± 139.2 s | 0.3 ± 0.2 | 0.0% | 1800 + 0.0 sec | 1800 + 0.0 sec | 0.0 + 0.0 | 64 nM | 15.7 mL/min/kg | 1010 ng·h/mL | 1.39 h | 1.75 L/kg | 827 ng/mL | 1 h | 77.1% | 3910 ng·h/mL | – |
| C[C@@]1(O)CC[C@H]2[C@H](CC[C@@H]3[C@@H]2CC[C@]2(C)[C@@H](C(=O)Cn4nnn(-c5cn[nH]c5)c4=O)CC[C@@H]32)C1 [Example 28, 1-(2-((3R,5R,8R,9R,10S,13S,14S,17S)-3-hydroxy-3,13-dimethylhexadecahydro-1H-cyclopenta[a]phenanthren-17-yl)-2-oxoethyl)-4-(1H-pyrazol-4-yl)-1,4-dihydro-5H-tetrazol-5-one] | 573.1 ± 124.9 s | 1.7 ± 0.3 | 40% | 1594.7 ± 107.0 s | 1586.3 ± 109.8 s | 0.4 ± 0.2 | 140 nM | 7.17 mL/min/kg | 2180 ng·h/mL | 6.12 h | 2.9 L/kg | 563 ng/mL | 6 h | 77.3% | 8420 ng·h/mL | – |
| C[C@@]1(O)CC[C@H]2[C@H](CC[C@@H]3[C@@H]2CC[C@]2(C)[C@@H](C(=O)Cn4nnn(-c5ccncc5)c4=O)CC[C@@H]32)C1 [Example 17, 1-(2-((3R,5R,8R,9R,10S,13S,14S,17S)-3-hydroxy-3,13-dimethylhexadecahydro-1H-cyclopenta[a]phenanthren-17-yl)-2-oxoethyl)-4-(pyridin-4-yl)-1,4-dihydro-5H-tetrazol-5-one] | 1441 + 184.6 sec | 0.3 ± 0.2 | 0.0% | 1800 + 0.0 sec | 1800 + 0.0 sec | 0.0 + 0.0 | 38 nM | 43.5 mL/min/kg | 381 ng·h/mL | 0.84 h | 2.12 L/kg | 227 ng/mL | 3 h | 101% | 1930 ng·h/mL | – |
| C[C@@]1(O)CC[C@H]2[C@H](CC[C@@H]3[C@@H]2CC[C@]2(C)[C@@H](C(=O)Cn4nnn(-c5ccc(F)cc5)c4=O)CC[C@@H]32)C1 [Example 11, 1-(4-fluorophenyl)-4-(2-((3R,5R,8R,9R,10S,13S,14S,17S)-3-hydroxy-3,13-dimethylhexadecahydro-1H-cyclopenta[a]phenanthren-17-yl)-2-oxoethyl)-1,4-dihydro-5H-tetrazol-5-one] | 717.4 ± 238.5 s | 0.8 ± 0.2 | 0.0% | 1800 + 0.0 sec | 1800 + 0.0 sec | 0.0 + 0.0 | 44 nM | 13.5 mL/min/kg | 1230 ng·h/mL | 3.9 h | 2.42 L/kg | 274 ng/mL | 1 h | 52.3% | 3200 ng·h/mL | 795% |
| C[C@@]1(O)CC[C@H]2[C@H](CC[C@@H]3[C@@H]2CC[C@]2(C)[C@@H](C(=O)Cn4nnn(-c5ccc(C#N)cc5)c4=O)CC[C@@H]32)C1 [Example 13, 4-(4-(2-((3R,5R,8R,9R,10S,13S,14S,17S)-3-hydroxy-3,13-dimethylhexadecahydro-1H-cyclopenta[a]phenanthren-17-yl)-2-oxoethyl)-5-oxo-4,5-dihydro-1H-tetrazol-1-yl)benzonitrile] | 1012 + 263.6 sec | 0.7 ± 0.3 | 0.0% | 1800 + 0.0 sec | 1800 + 0.0 sec | 0.0 + 0.0 | 13 nM | 5.67 mL/min/kg | 2640 ng·h/mL | 8.03 h | 2.94 L/kg | 479 ng/mL | 1 h | 41.5% | 5760 ng·h/mL | – |
